Entries after “also recorded” stand apart in the source; their conditions may differ.
Key:
[1] = system: SUPM2 cells (naturally SHP-1+/+); assay: Cell proliferation assay with ALCL cell lines (Alamar Blue), PNKP inhibition; assay type: cell-based; settings: SUPM2 (SHP-1+/+), approximately 10 μM, 12-16 days
Protocol: (§1) Karpas 299 or SUPM2 cells were plated in 96-well format at a concentration of 5,000 cells/100 μL in complete RPMI. Increasing concentrations of the PNKP inhibitor A12B4C3 was added to each well at a constant concentration of DMSO and left to incubate for 12-16 days. 11 μL of 440 μM Alamar Blue was then loaded onto the plates and left to incubate for 24-48 hours after which fluorescence was determined as described above.

[2] = system: Karpas 299 cells (naturally SHP-1−/−); assay: as above; assay type: cell-based; settings: Karpas 299 (SHP-1−/−), approximately 10 μM, 12-16 days
Protocol: as §1

HCT116 cells = assay: Colony-forming assay with γ-radiation (synthetic sickness); assay type: cell-based
Protocol: (§2) The effect of survival of simultaneous disruption of two proteins was conducted using the clonogenic survival assay. To allow cells time to adhere to the plates, cells were seeded 24 h in advance. Cells were treated with the PNKP inhibitor A12B4C3 for 9-14 consecutive days in triplicate at 0 μM, 0.1 μM, 1 μM, and 10 μM final concentration where 100 cells were plated for the 0 μM, 0.1 μM and 1 μM concentration groups and 300 cells in the 10 μM concentration group. Colonies were then stained with a crystal violet containing 20% methanol for one hour after which the plates were washed in warm water and left to dry overnight. Colonies of 50+ cells were then counted using an automated colony counter (Oxford Optronix, Oxford, UK).
For the indicated colony-forming assays, cells were treated with 0, 1, 2, 4, 6, or 8 Gy of γ-radiation (^60Co Gammacell; Atomic Energy of Canada Limited, Ottawa, Canada).
These HCT116 cells were then subjected to additional testing to determine if disruption of PNKP in PTEN negative cells would hypersensitize these cells to ionizing radiation. These assays to determine ‘synthetic sickness’ were done using […] A12B4C3, which was added to the cells 24 h before irradiation in a colony-forming assay. After one day the cells were subjected to 0, 1, 2, 4, 6, or 8 Gy of γ-radiation. […]

[3] = system: PC3 cell lines lacking functional PTEN (p.R55fs*1, WT RAD51, p.BABE.puro, p.C124S, PC3 parental); assay: Survival of PC3 cells in response to PNKP inhibition; assay type: cell-based; settings: doses ≥10 μM, 12-16 days
Protocol: as §2
(§3) To investigate the feasibility of taking advantage of the newly identified partnership between PTEN and PNKP, we subjected the prostate cancer cell line, PC3 (naturally PTEN^−/−) to an increasing concentration of the PNKP inhibitor A12B4C3 (3) over a period of 12-16 days.

[4] = system: PC3 cells reconstituted with WT PTEN or p.K289E; assay: as above; assay type: cell-based; settings: WT PTEN and p.K289E reconstituted PC3, 12-16 days
Protocol: as §2, §3

[5] = system: HCT116 PTEN wildtype cells (HCT116 parental and Neo124 vector only); assay: Colony forming assay under PNKP inhibition; assay type: cell-based; settings: PTEN proficient HCT116, increasing concentrations
Protocol: as §2

[6] = system: HCT116 PTEN deleted cells (#22 and #35); assay: Colony forming assay under PNKP inhibition; assay type: cell-based; settings: PTEN deleted HCT116, increasing concentrations
Protocol: as §2

[7] = system: A549(Scramble) and A549δPNKP cells; assay: Mode of cell death determination (Hoescht 33342, Ethidium Homodimer III, Annexin V-FITC triple stain); assay type: cell-based, human; settings: 100 μM, 24 to 72 hours
Protocol: A549(Scramble) or A549δPNKP cells were grown on coverslips in complete DMEM/F12 and were either transfected with ASN or SHP-1. Another control subjected these cell lines to 100 μM 5-(p-Bromobenzylidine)-α-isopropyl-4-oxo-2-thioxo-3-thiozolidineacetic acid (BH3I-1, Sigma-Aldrich, Oakville, ON), which is a known apoptosis inducer. The cells were grown under each condition for the indicated length of time before being subjected to a triple stain of Hoescht 33342, Ethidium Homodimer III and Annexin V-FITC (Biotium, Hayward, Calif.). Hoescht 33342 is an uncharged DNA stain that will stain the nuclei of healthy and non-healthy cells alike, however, Ethidium Homodimer III is a highly positively charged DNA stain that cannot readily enter cells unless there is a loss of membrane integrity. […]
To identify the mechanism in which cells undergo synthetic lethality upon simultaneous disruption of SHP-1 and PNKP, A549(Scramble) and A549δPNKP cells were grown on coverslips and transiently transfected with ASN or SHP-1 siRNA (FIGS. 21A and 21C, respectively). […] Cells were then simultaneously stained with Hoescht 33342, EthidiumHomodimer III and Annexin V-FITC, which fluoresce at different wavelengths (absorbance/emission; 350/461 nm, 528/617 nm, and 492/514 nm, respectively). […]

Compound | survival [1] | survival [2] | sensitivity to ionizing radiation (HCT116 cells; PNKP independently disrupted (PTEN proficient HCT116), 2 M A12B4C3 added 24 h before 0-8 Gy γ-radiation) | sensitivity to ionizing radiation (HCT116 cells; PTEN negative HCT116, 2 M A12B4C3 added 24 h before 0-8 Gy γ-radiation) | survival [3] | survival [4] | survival under PNKP inhibition [5] | survival under PNKP inhibition [6] | apoptotic cells [7]
CCCCCCCCCCC(O)C1C=CC2C(=O)N(c3ccccc3)C(=O)C2N1Nc1ccc([N+](=O)[O-])cc1 (stereo not drawn) [A12B4C3, 2-(1-hydroxyundecyl)-1-(4-nitrophenylamino)-6-phenyl-6,7a-dihydro-1H-pyrrolo[3,4-b]pyridine-5,7(2H,4aH)-dione] | remain viable | marked decrease in survival | increase in sensitivity to ionizing radiation | increase in the sensitivity to ionizing radiation | marked decrease in survival | lethality under PNKP inhibition was rescued | no effect | sensitive to PNKP disruption | –
CC(C)C(C(=O)O)N1C(=O)C(=Cc2ccc(Br)cc2)SC1=S (stereo not drawn) [BH3I-1, 5-(p-Bromobenzylidine)-α-isopropyl-4-oxo-2-thioxo-3-thiozolidineacetic acid] | – | – | – | – | – | – | – | – | substantial increase in the occurrence of apoptotic cells; also recorded: increase in apoptotic cells beginning at 24 hours and continuing on through 72 hours

Reference: patent US10087448B2, “Synthetic lethality in cancer” (The Governors of the University of Alberta, priority 2010, dated 2018)
